Tests used:
[1] = biological target: T1, Adenosine receptor A1 (Rattus norvegicus, UniProt P25099); assay: Radiological Binding Assay; conditions: pH 7.4
T1 sequence (P25099 whole entry): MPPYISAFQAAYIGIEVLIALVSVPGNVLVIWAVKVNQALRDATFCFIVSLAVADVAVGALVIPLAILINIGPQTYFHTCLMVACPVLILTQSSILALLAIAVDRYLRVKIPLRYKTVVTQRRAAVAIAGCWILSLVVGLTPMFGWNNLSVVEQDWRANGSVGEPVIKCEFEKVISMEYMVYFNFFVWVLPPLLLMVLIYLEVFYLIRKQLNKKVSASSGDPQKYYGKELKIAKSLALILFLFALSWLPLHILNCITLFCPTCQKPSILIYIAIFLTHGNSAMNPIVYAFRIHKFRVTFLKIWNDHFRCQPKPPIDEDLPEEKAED
Method: For A1 adenosine receptors, […] of protein were incubated for 60 min at 25°C with [3H]DPCPX 0.5 nM (Kd = 0.4 nM) and increasing concentrations of the compounds, in a final volume of 0.4 mL of Tris-HCl buffer. Binding reaction was terminated by dilution with ice-cold 50 mM Tris-HCl buffer, pH 7.4.For A2A and A3 adenosine receptors, […] of protein were incubated with [3H]ZM241385 6 nM (Kd = 4 nM) in the experiments involving A2A and with [3H]NECA 15 nM (Kd = 150 nM) involving A3 and the compounds to be assayed, at fixed concentration (10 µM) or at increasing concentrations of the compounds in duplicate, in a final volume of 0.4 mL of Tris-HCl buffer for 120 min at 25°C. Non-specific binding was measured in the presence of 100 µM NECA in the case of A2A and 100 µM R-PIA in the case of A3 binding assay. Bound radioactivity of all samples was measured in a liquid scintillation counter (1600 TR Packard) after the addition of 4 mL of scintillation liquid (Emulsifier-Safe; Hewlett-Packa

[2] = biological target: Adenosine receptor A1 (rat); assay: For A1 adenosine receptors, […] of protein were incubated for 60 min at 25°C with [3H]DPCPX 0.5 nM (Kd = 0.4 nM) and increasing concentrations of the compounds, in a final volume of 0.4 mL of Tris-HCl buffer. Binding reaction was terminated by dilution with ice-cold 50 mM Tris-HCl buffer, pH 7.4.For A2A and A3 adenosine receptors, […]
[3] = biological target: Adenosine receptor A2a; assay: as above

SMILES | Ki [1] [nM] | Ki [2] [nM] | Ki [3] [nM]
Nc1nc(-c2ccccc2)nc2c1nnn2Cc1ccccc1F [9-(ortho-fluorobenzyl)-2-phenyl-azaadenine (1bis)] | 3.8 | 3.8 | 
O=C(Nc1nc(-c2ccccc2)nc2c1nnn2Cc1ccccc1F)C1CC1 [N-[9-(ortho-fluorobenzyl)-2-phenyl-9H-8-azapurin-6-yl]-amides (2)] |  | 9.2 | 292
O=C(Nc1nc(-c2ccccc2)nc2c1nnn2Cc1ccccc1F)C1CCCC1 [N-[9-(ortho-fluorobenzyl)-2-phenyl-9H-8-azapurin-6-yl]-amides (4)] |  | 1.4 | 190
O=C(Nc1nc(-c2ccccc2)nc2c1nnn2Cc1ccccc1F)C1CCCCC1 [N-[9-(ortho-fluorobenzyl)-2-phenyl-9H-8-azapurin-6-yl]-amides (5)] |  | 2.1 | 413
O=C(Nc1nc(-c2ccccc2)nc2c1nnn2Cc1ccccc1F)c1ccco1 [N-[9-(ortho-fluorobenzyl)-2-phenyl-9H-8-azapurin-6-yl]-amides (6)] |  | 5.5 | 224
O=C(Nc1nc(-c2ccccc2)nc2c1nnn2Cc1ccccc1F)c1cccc(Cl)c1 [N-[9-(ortho-fluorobenzyl)-2-phenyl-9H-8-azapurin-6-yl]-amides (8)] |  | 43 | 
O=C(Nc1nc(-c2ccccc2)nc2c1nnn2Cc1ccccc1F)c1cccc(F)c1 [N-[9-(ortho-fluorobenzyl)-2-phenyl-9H-8-azapurin-6-yl]-amides (9)] |  | 5.5 | 
O=C(Nc1nc(-c2ccccc2)nc2c1nnn2Cc1ccccc1F)c1ccc([N+](=O)[O-])cc1 [N-[9-(ortho-fluorobenzyl)-2-phenyl-9H-8-azapurin-6-yl]-amides (12)] |  | 14 | 

More lines, in order of falling Ki [2], values ahead:

Ki [1] [nM] | Ki [2] [nM] | Ki [3] [nM] | SMILES
 | 92 |  | O=C(Nc1nc(-c2ccccc2)nc2c1nnn2Cc1ccccc1F)c1ccc(I)cc1 [N-[9-(ortho-fluorobenzyl)-2-phenyl-9H-8-azapurin-6-yl]-amides (13)]
 | 28 |  | O=C(Nc1nc(-c2ccccc2)nc2c1nnn2Cc1ccccc1F)c1cccc([N+](=O)[O-])c1 [N-[9-(ortho-fluorobenzyl)-2-phenyl-9H-8-azapurin-6-yl]-amides (11)]
 | 18 |  | Nc1ccc(C(=O)Nc2nc(-c3ccccc3)nc3c2nnn3Cc2ccccc2F)cc1 [N-[9-ortho-fluorobenzyl)-2-phenyl-9H-8-azapurin-6-yl]-amides (15)]
 | 2.3 | 91 | O=C(Nc1nc(-c2ccccc2)nc2c1nnn2Cc1ccccc1F)c1ccoc1 [N-[9-(ortho-fluorobenzyl)-2-phenyl-9H-8-azapurin-6-yl]-amides (7)]
 | 0.71 | 72 | O=C(Nc1nc(-c2ccccc2)nc2c1nnn2Cc1ccccc1F)C1CCC1 [N-[9-(ortho-fluorobenzyl)-2-phenyl-9H-8-azapurin-6-yl]-amides (3)]

Source: BindingDB's records for doi:10.1111/cbdd.12131 (University of Pisa, 2013)
